Literature values as cited in patent publication US20070155747A1, “INHIBITORS OF FATTY ACID AMIDE HYDROLASE” (KADMUS PHARMACEUTICALS, INC., priority 2005, published 2007).

Test system: FAAH
Conditions: literature (Kathuria et al. 2003; Mor et al. 2004; WO 2004/033422)

NC(=O)c1cccc(-c2cccc(OC(=O)NC3CCCCC3)c2)c1 [KDS-4103]
inhibition of FAAH activity: potent and selective inhibitors of FAAH activity
